What was measured:
Experiment in all cases: relative viability (nuclei count vs DMSO), 5 days (fraction); higher = more cells survive
Gemcitabine + Tozasertib = compound: Nc1ccn([C@@H]2O[C@H](CO)[C@@H](O)C2(F)F)c(=O)n1 [Gemcitabine] + Cc1cc(Nc2cc(N3CCN(C)CC3)nc(Sc3ccc(NC(=O)C4CC4)cc3)n2)n[nH]1 [Tozasertib] (partner 0.1 µM)
Outline: (§1)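 Medians of duplicate plates are given as relative viability. That measure is the nuclei count in treated wells divided by the count in vehicle wells. Counts were taken on 4× images of lung cancer cell lines in 1536-well plates, 5 days after pin-tool dosing the day after seeding with one drug alone or a fixed anchor-drug dose plus five library-drug doses (not always all listed) in √10 steps.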

Gemcitabine + Foretinib = compound: Nc1ccn([C@@H]2O[C@H](CO)[C@@H](O)C2(F)F)c(=O)n1 [Gemcitabine] + COc1cc2c(Oc3ccc(NC(=O)C4(C(=O)Nc5ccc(F)cc5)CC4)cc3F)ccnc2cc1OCCCN1CCOCC1 [Foretinib] (partner 0.25 µM)
Outline: as §1

Gemcitabine + AZD7762 = compound: Nc1ccn([C@@H]2O[C@H](CO)[C@@H](O)C2(F)F)c(=O)n1 [Gemcitabine] + NC(=O)Nc1cc(-c2cccc(F)c2)sc1C(=O)N[C@H]1CCCNC1 [AZD7762] (partner 0.2 µM)
Outline: as §1

Gemcitabine + Luminespib = compound: Nc1ccn([C@@H]2O[C@H](CO)[C@@H](O)C2(F)F)c(=O)n1 [Gemcitabine] + CCNC(=O)c1noc(-c2cc(C(C)C)c(O)cc2O)c1-c1ccc(CN2CCOCC2)cc1 [Luminespib] (partner 0.01 µM)
Outline: as §1

Cell Line	relative viability (Gemcitabine + Tozasertib; first compound 0.001 µM)	relative viability (Gemcitabine + Tozasertib; first compound 0.003162 µM)	relative viability (Gemcitabine + Tozasertib; first compound 0.01 µM)	relative viability (Gemcitabine + Tozasertib; first compound 0.03162 µM)	relative viability (Gemcitabine + Tozasertib; first compound 0.1 µM)	relative viability (Gemcitabine + Foretinib; first compound 0.001 µM)	relative viability (Gemcitabine + Foretinib; first compound 0.003162 µM)	relative viability (Gemcitabine + Foretinib; first compound 0.01 µM)	relative viability (Gemcitabine + Foretinib; first compound 0.03162 µM)	relative viability (Gemcitabine + Foretinib; first compound 0.1 µM)	relative viability (Gemcitabine + AZD7762; first compound 0.001 µM)	relative viability (Gemcitabine + AZD7762; first compound 0.003162 µM)	relative viability (Gemcitabine + AZD7762; first compound 0.01 µM)	relative viability (Gemcitabine + AZD7762; first compound 0.03162 µM)	relative viability (Gemcitabine + AZD7762; first compound 0.1 µM)	relative viability (Gemcitabine + Luminespib; first compound 0.001 µM)	relative viability (Gemcitabine + Luminespib; first compound 0.003162 µM)	relative viability (Gemcitabine + Luminespib; first compound 0.01 µM)	relative viability (Gemcitabine + Luminespib; first compound 0.03162 µM)	relative viability (Gemcitabine + Luminespib; first compound 0.1 µM)
NCI-H838	0.283	0.277	0.263	0.164	0.121	1.12	1.26	0.999	0.435	0.17	0.93	0.886	0.648	0.565	0.616	0.286	0.289	0.241	0.292	0.18
NCI-H1355	0.508	0.393	0.189	0.18	0.169	0.858	0.7	0.247	0.2	0.187	0.434	0.196	0.112	0.163	0.132	0.724	0.62	0.24	0.22	0.213
NCI-H1395	0.676	0.674	0.429	0.367	0.334	0.922	0.763	0.541	0.388	0.349	0.408	0.37	0.352	0.307	0.336	0.739	0.607	0.391	0.361	0.343
NCI-H1437	0.447	0.418	0.347	0.297	0.156	1.28	1.14	0.867	0.442	0.209	1.16	0.951	0.171	0.159	0.124	1.08	1.02	0.645	0.391	0.191
NCI-H1651	0.621	0.683	0.693	0.177	0.0714	0.805	0.771	0.596	0.137	0.0964	0.519	0.435	0.39	0.0714	0.0892	0.906	0.893	0.731	0.278	0.134
NCI-H1666	0.622	0.615	0.582	0.387	0.337	0.9	0.991	0.889	0.619	0.428	0.866	0.699	0.582	0.332	0.368	1.01	0.937	0.957	0.595	0.393
NCI-H1734	0.243	0.264	0.125	0.104	0.105	0.781	0.653	0.287	0.131	0.126	0.153	0.118	0.0866	0.113	0.0969	0.159	0.157	0.119	0.136	0.119
NCI-H1755	0.594	0.564	0.411	0.321	0.252	1	0.909	0.879	0.564	0.29	0.462	0.396	0.236	0.26	0.245	0.451	0.505	0.491	0.346	0.26

From the supplement of paper PMC10307832
